In PubChem BioAssay AID1996:
≈ marks a conversion by molar mass, not a printed value.

Settings: buffer; pH 7.4; 200.0 µM

Structure (SMILES)	solubility kinetic
Nc1nc(NCC(=O)O)nc(NCc2ccccc2)c1[N+](=O)[O-]	> 47.7 µg/mL
COc1ccc(CCNC2=CC(=O)CC(C)(C)C2)cc1	40.4 µg/mL (≈ 148 µM)
Cc1ccccc1C1NC(=S)NC2=C1C(=O)CCC2 (stereo not given)	> 40.9 µg/mL
Cc1cccc(NC(=O)C2CCCN2C(=O)NC2CCCCC2)c1 (stereo not given)	3.1 µg/mL (≈ 9.41 µM)
CC1(C)Cc2nc(-c3ccccc3)nc(SCC(=O)N3CCCC3)c2CO1	22.3 µg/mL (≈ 58.1 µM)
O=S(=O)(c1cccc(-c2nnco2)c1)N1CCOCC1	> 44.3 µg/mL
CN(C(=O)Cn1cc(C#N)c2ccccc21)c1ccccc1	7.4 µg/mL (≈ 25.6 µM)
COc1ccc(OC(=O)c2cnc3n(c2=O)CCS3)cc1	35 µg/mL (≈ 115 µM)
Cc1ccc(S(=O)(=O)N(C)C)cc1NC(=O)Nc1ccccc1	< 0.2 µg/mL
CCc1ccccc1NC(=O)CCC(=O)c1cccs1	32.1 µg/mL (≈ 112 µM)
O=C(Nc1cc([N+](=O)[O-])ccc1N1CCCC1)c1cccs1	4.1 µg/mL (≈ 12.9 µM)
CC(C)(C)NC(=O)/C=C/c1cccs1	> 31.4 µg/mL
CCCC(=O)Oc1ccc(C2NC(=O)c3ccccc3O2)cc1 (stereo not given)	< 0.7 µg/mL
O=C(Oc1coc(CSc2ncccn2)cc1=O)c1ccco1	46.5 µg/mL (≈ 141 µM)
CCC(C)NC(=O)c1ccc2c(c1)N(Cc1ccccc1)C(=O)CS2 (stereo not given)	3.6 µg/mL (≈ 10.2 µM)
CC(C)(C)C(=O)Nc1ccc(S(=O)(=O)N2CCCC2)cc1	> 46.6 µg/mL
COc1cc2[nH]c(=S)nc(NCc3ccc(C)cc3)c2cc1OC	3.8 µg/mL (≈ 11.1 µM)
CC(C)CC(=O)Nc1ccc(Oc2ccc3c(c2)C(=O)NC3=O)cc1	0.4 µg/mL (≈ 1.18 µM)
Cc1ccc(C(=O)OCC(=O)N(Cc2ccccc2)C(C)C)cc1C	16.8 µg/mL (≈ 49.5 µM)
CC(C)C[C@H](NC(=O)NCCC1=CCCCC1)C(=O)O	40.9 µg/mL (≈ 145 µM)

Structure (SMILES)	solubility kinetic
Clc1cccc(CNc2nc(-c3cccnc3)nc3ccccc23)c1	0.5 µg/mL (≈ 1.44 µM)
CC(=O)N/C(=N/c1nc(C)cc(C)n1)Nc1cc(C)cc(C)c1	3.8 µg/mL (≈ 12.2 µM)
CC(O)CNCCOc1ccccc1-c1ccccc1.O=C(O)C(=O)O (stereo not given)	> 54.2 µg/mL
O=C(NCCc1ccccc1)C1(c2ccccc2)CCCC1	28.9 µg/mL (≈ 98.5 µM)
O=C(Nc1ccc(Br)cc1)c1ccccc1Br	7.3 µg/mL (≈ 20.6 µM)
CN(C)c1nc(C(=O)O)nc(N2CCOCC2)n1	36.2 µg/mL (≈ 143 µM)
Cc1ccc2c(c1)sc(=NC(=O)c1cccs1)n2C	< 0.3 µg/mL
COc1cc([N+](=O)[O-])ccc1NC(=O)NCCCN1CCCC1=O	> 50.5 µg/mL
Cc1ccc(NC(=O)Cn2c(C)csc2=O)cc1	> 39.3 µg/mL
COc1cc(/C=C/C(=O)OC(C)C(=O)Nc2ccc(Cl)cn2)ccc1OC(F)F (stereo not given)	2.8 µg/mL (≈ 6.56 µM)
Cc1ccc(NC(=O)NC2CCCCCCC2)cc1C	< 0.3 µg/mL
Cc1csc2c(=O)sc(NC(=O)c3ccco3)nc12	4.5 µg/mL (≈ 15.4 µM)
CCOC(=O)NC(N(O)c1cccc(Cl)c1)C(Cl)(Cl)Cl (stereo not given)	37.1 µg/mL (≈ 102 µM)
O=C(NCc1ccccc1)c1cccn(Cc2ccccc2)c1=O	45.9 µg/mL (≈ 144 µM)
CC1CCN(CC(=O)Nc2ccc3c(c2)OCO3)CC1	> 41.5 µg/mL
CCOC(=O)c1ccc(N2C(=O)CC(Sc3nc(C)cc(C)n3)C2=O)cc1 (stereo not given)	4 µg/mL (≈ 10.4 µM)
CCOC(=O)c1cccc(NC(=O)CCc2ccccc2)c1	33.1 µg/mL (≈ 111 µM)
Cc1ccsc1C1C(C#N)=C(N)N(N(C)C)C2=C1C(=O)CCC2 (stereo not given)	> 49.3 µg/mL
COc1ccc(Br)cc1CN(C)C(=O)C1=CC=CN2CCS(=O)(=O)N=C12	43.1 µg/mL (≈ 97.9 µM)
CC(=O)N/C(=N\c1nc(C)cc(C)n1)Nc1ccc2ccccc2c1	0.5 µg/mL (≈ 1.5 µM)

Structure (SMILES)	solubility kinetic
O=C1NCC(COc2ccc([N+](=O)[O-])cc2)O1 (stereo not given)	34.1 µg/mL (≈ 143 µM)
C=CCN1C(=O)C2(OCCCO2)c2cccc(Cl)c21	15.1 µg/mL (≈ 54 µM)
Cc1cccn2c(=O)nc(SCC(=O)N3CC(C)OC(C)C3)nc12 (stereo not given)	51.7 µg/mL (≈ 148 µM)
COc1ccc(NC(=O)COC(=O)Cc2coc3cc(OC)ccc23)c(OC)c1	11.8 µg/mL (≈ 29.5 µM)
Cc1ccccc1-c1nnc(SCC(=O)Nc2cccnc2Cl)o1	> 54.1 µg/mL
Cc1ccc2c(c1)c(-c1csc(N)n1)c(C)n2C	13.4 µg/mL (≈ 52.1 µM)
CN(Cc1ccccc1)C(=O)N1CCOCC1	> 35.1 µg/mL
CCCNC(=O)COCc1cc(-c2ccc3c(c2)OCO3)on1	> 47.7 µg/mL
Brc1ccc(Nc2nc(-c3cccnc3)cs2)cc1	0.3 µg/mL (≈ 0.903 µM)
CC(C)c1ccc(OC(=O)c2ccc3c(=O)n4c(nc3c2)CCC4)cc1	8.3 µg/mL (≈ 23.8 µM)
COc1ccc(C(C)=O)cc1Cc1c(O)[nH]c(=S)[nH]c1=O	> 46 µg/mL
CCN(CC)C(=O)Oc1cc(COC)nc(-c2ccccc2)n1	39.5 µg/mL (≈ 125 µM)
O=C(NCCN1CCOCC1)c1ccc(Cl)c([N+](=O)[O-])c1	41.4 µg/mL (≈ 132 µM)
O=C(Cc1ccccc1F)NC1CCSc2ccccc21 (stereo not given)	8.1 µg/mL (≈ 26.9 µM)
CCOc1ccc(N/C=C/C(=O)c2ccccc2)cc1	0.8 µg/mL (≈ 2.99 µM)
CC(=O)Nc1ccc(OS(=O)(=O)c2ccccc2C)cc1	35.2 µg/mL (≈ 115 µM)
COc1ccc(C(=O)NCCCN2CCOCC2)cc1	> 41.8 µg/mL
COc1ccc(CN2C(=O)c3ccccc3C2=O)cc1	6 µg/mL (≈ 22.4 µM)
O=C(NC1CCN(Cc2ccccc2)CC1)c1ccc(Cl)cc1Cl	> 54.5 µg/mL
CCN(CC(=O)Nc1ccc(NC(C)=O)cc1)C(=O)c1ccc(=O)[nH]c1	50.4 µg/mL (≈ 141 µM)
